The source made the active and inactive calls. No cut-off for these calls is given here.
What was measured:
[1] = Toxicity in BALB/c mouse implanted with mouse CT26 cells assessed as lung damage at 100 mg/kg, po measured for 14 days by hematoxylin and eosin staining based fluorescence microscopic analysis; format: organism-based; settings: in vivo, 336 h, time 14 day
[2] = molecular target: T1, Protein mono-ADP-ribosyltransferase TIPARP (Homo sapiens) (UniProt Q7Z3E1); assay: Inhibition of human recombinant N-terminal FLAG tagged PARP7 (400 to 657 end residues) at 100 nM incubated for 1 hr by ELISA assay relative to control
T1 sequence (whole entry): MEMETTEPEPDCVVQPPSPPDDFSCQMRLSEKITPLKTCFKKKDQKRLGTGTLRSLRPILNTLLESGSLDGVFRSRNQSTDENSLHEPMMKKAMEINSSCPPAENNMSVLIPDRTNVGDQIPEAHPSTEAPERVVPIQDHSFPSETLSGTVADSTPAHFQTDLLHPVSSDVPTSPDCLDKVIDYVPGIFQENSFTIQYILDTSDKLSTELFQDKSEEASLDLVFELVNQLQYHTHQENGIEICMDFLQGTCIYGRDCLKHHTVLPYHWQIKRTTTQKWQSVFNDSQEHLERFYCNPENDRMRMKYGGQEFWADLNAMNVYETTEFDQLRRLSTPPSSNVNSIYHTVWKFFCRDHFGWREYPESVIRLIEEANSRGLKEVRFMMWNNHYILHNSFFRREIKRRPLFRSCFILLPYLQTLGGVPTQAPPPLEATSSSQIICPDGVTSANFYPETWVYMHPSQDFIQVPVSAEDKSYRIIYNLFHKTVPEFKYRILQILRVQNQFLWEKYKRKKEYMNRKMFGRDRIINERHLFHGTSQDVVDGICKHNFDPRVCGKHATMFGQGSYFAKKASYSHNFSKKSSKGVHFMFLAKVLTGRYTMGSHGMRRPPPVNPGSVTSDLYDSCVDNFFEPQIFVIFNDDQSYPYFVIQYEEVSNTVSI

[3] = molecular target: Voltage-gated inwardly rectifying potassium channel KCNH2 (Homo sapiens, UniProt Q12809); assay: Inhibition of hERG; format: toxicity
Chain of Voltage-gated inwardly rectifying potassium channel KCNH2 (Q12809 whole entry): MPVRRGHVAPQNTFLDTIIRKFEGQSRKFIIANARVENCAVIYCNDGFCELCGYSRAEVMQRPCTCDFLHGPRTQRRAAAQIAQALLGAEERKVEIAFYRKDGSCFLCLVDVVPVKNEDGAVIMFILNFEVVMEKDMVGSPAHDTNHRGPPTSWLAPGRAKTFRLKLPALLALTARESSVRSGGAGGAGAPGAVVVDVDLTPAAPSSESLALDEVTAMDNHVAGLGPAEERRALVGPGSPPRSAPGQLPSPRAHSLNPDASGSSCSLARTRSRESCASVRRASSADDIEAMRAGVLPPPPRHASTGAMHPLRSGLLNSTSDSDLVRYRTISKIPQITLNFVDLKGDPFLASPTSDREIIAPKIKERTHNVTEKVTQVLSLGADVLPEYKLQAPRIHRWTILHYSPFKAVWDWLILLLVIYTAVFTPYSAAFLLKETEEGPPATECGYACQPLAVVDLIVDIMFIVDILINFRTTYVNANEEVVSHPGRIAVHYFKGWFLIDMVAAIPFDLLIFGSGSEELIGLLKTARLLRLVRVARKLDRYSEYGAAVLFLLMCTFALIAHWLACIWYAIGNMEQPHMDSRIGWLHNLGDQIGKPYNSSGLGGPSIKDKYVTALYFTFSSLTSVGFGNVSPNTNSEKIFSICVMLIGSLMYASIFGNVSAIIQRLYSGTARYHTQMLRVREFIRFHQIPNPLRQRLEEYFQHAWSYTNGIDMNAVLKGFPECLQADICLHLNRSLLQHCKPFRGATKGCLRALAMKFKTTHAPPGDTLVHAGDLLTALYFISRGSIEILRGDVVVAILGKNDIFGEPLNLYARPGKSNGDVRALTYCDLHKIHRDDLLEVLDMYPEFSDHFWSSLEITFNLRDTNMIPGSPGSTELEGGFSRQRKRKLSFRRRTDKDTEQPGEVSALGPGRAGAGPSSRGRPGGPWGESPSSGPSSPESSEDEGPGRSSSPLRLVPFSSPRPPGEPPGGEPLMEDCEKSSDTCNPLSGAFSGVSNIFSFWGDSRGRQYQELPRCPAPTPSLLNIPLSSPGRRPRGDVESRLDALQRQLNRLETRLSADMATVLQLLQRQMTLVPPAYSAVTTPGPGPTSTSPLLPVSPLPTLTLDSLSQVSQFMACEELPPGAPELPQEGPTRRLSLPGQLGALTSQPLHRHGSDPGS

CT26 [4] = assay: Antitumor activity against mouse CT26 cells xenografted in BALB/c mouse assessed as tumor growth inhibition at 50 mg/kg, po bid measured for 14 days; format: functional; settings: CT26, 336 h, time 14 day, read-out: TGI
[5] = molecular target: T2, Protein mono-ADP-ribosyltransferase TIPARP (Homo sapiens, UniProt Q7Z3E1); assay: Inhibition of human recombinant N-terminal FLAG-tagged PARP7 (400 to 657 end residues) incubated for 1 hr by ELISA assay
T2 sequence (Q7Z3E1 whole entry): T1 sequence (whole entry)

[6] = Half life in ICR mouse at 10 mg/kg, po measured upto 24 hrs by LC-MS/MS analysis; format: ADME, organism-based; settings: in vivo
CT26 [7] = assay: Antitumor activity against mouse CT26 cells implanted in BALB/c mouse assessed as tumor cell agglutination at 25 to 100 mg/kg, po bid measured for 14 days by hematoxylin and eosin staining based fluorescence microscopic analysis; format: functional, organism-based; settings: dose 25-100 mg/kg, time 14.0 day
[8] = Initial plasma concentration in ICR mouse at 1 mg/kg, iv measured upto 24 hrs by LC-MS/MS analysis; format: ADME, organism-based
NCI-H1373 = assay: cells; settings: Homo sapiens, NCI-H1373, 144 h
[9] = molecular target: T3, Protein mono-ADP-ribosyltransferase PARP11 (Homo sapiens, UniProt Q9NR21); assay: Inhibition of human recombinant N-terminal GST-tagged / C-terminal His-tagged PARP11 (8 to 338 end residues) expressed in baculovirus infected Sf9 cells expression system incubated for 1 hr by ELISA assay
T3 sequence (Q9NR21 whole entry): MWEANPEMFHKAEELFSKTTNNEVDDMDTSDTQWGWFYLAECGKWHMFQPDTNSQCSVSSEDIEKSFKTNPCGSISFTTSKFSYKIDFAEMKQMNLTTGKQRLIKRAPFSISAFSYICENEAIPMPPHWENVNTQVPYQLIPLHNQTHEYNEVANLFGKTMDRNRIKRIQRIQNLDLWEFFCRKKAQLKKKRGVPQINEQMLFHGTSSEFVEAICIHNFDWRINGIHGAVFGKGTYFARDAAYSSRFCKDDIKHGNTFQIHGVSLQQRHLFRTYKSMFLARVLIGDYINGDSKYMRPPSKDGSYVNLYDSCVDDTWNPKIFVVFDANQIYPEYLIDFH

[10] = Toxicity in BALB/c mouse implanted with mouse CT26 cells assessed as change in body weight at 1000 mg/kg, po measured upto 7 days; format: organism-based; settings: in vivo, 168 h, time < 7 day
[11] = MRT(0 to infinity) in ICR mouse at 1 mg/kg, iv measured upto 24 hrs by LC-MS/MS analysis; format: ADME, organism-based; settings: in vivo
[12] = AUC(0 to infinity) in ICR mouse at 1 mg/kg, iv measured upto 24 hrs by LC-MS/MS analysis; format: ADME, organism-based; design: time < 24 hrs, dose 1 mg/kg, route iv; settings: in vivo
CT26 [13] = assay: cells; settings: Mus musculus, CT26, 144 h

inhibition [2]: 70.5%
IC50 [5]: 0.0076 µM
t1/2 [6]: 1.74 h
C0 at 24 h [8]: 504 ng/mL
IC50 (NCI-H1373): 1.09 µM
IC50 [9]: 32.2 µM
MRT inf [11]: 1.68 h
AUC [12]: 591.1 ng·h/mL
IC50 (CT26 [13]): 19.5 µM
Compound: C[C@@H](CN1CC(C(=O)N2CCN(c3ncc(C(F)(F)F)cn3)CC2)C1)Nc1cn[nH]c(=O)c1C(F)(F)F
Activity [1]: Non-Toxic
inhibition (INH) [3]: Not Active
inhibition in vivo at 50 mg/kg (CT26 [4]): 46%
Activity (CT26 [7]): Active
Activity [10]: Non-Toxic

Reference: ChEMBL document CHEMBL5316291 (J Med Chem, 2023)
